Measured values from patent US9862748B2, “Peptide compounds and methods of production and use thereof” (priority 2012, dated 2018).
Square brackets hold non-standard residues; d marks the D form. Peptide text beside a SMILES is read from it. AEEA = NCCOCCOCC(=O)O

Assays:
[1] = system: Acinetobacter baumannii ATCC® BAA-747™; type: cell-based; details: starting inoculum 1×10^6 CFU/ml; 60 to 180 minute incubation
Method: (§1) In vitro bactericidal activity: The three peptide compounds BCC01-5RMP (SEQ ID NO: 21), BCC02-5RMP (SEQ ID NO: 22), and BCC03-5RMP (SEQ ID NO: 23) were assayed for in vitro bactericidal activity against Pseudomonas aeruginosa, Escherichia coli, Salmonella typhimurium, and Acinetobacter baumannii. The starting inoculum for all experiments was 1×10^6 colony forming units (CFU)/ml. The CFU remaining at the end of 60 to 180 minute incubation was determined, and the data plotted as a log reduction in CFU/ml.
For FIGS. 10-13, in vitro bactericidal assays were performed using a starting inoculum of 1×10^6 CFU/ml of the bacterial suspension. The CFU remaining at the end of the 60-180 minute incubation was determined, and the data was plotted as log reduction in CFU/ml.
In particular, each of the test peptides (CAP37 peptides 120-146WR, 120-146WH, and 95-122 (SEQ ID NOs: 30, 31, and 26, respectively)) was used at 25, 12.5, 6.25, and 3.12 μM. Gentamicin was used at 4 μg/ml. 1×10^6/ml Acinetobacter baumannii ATCC® BAA-747™ or Pseudomonas aeruginosa ATCC® 27853™ (American Type Culture Collection, Manassas, Va.) were incubated with the peptides, negative buffer control (tryptone saline), and positive control gentamicin at pH 5.5 or 7.2. A 60 minute incubation was used for Acinetobacter baumannii ATCC® BAA-747™, while a 180 minute incubation was used for Pseudomonas aeruginosa ATCC® 27853™. 50 μl aliquots were plated out on agar plates and incubated overnight. Colony forming units were counted after overnight incubation and CFU/ml calculated.

Salmonella typhimurium = assay: In vitro bactericidal assay; type: cell-based
Method: as §1

Pseudomonas LPS = assay: LPS binding, Limulus Amebocyte Lysate (LAL) assay
Method: (§2) The well-characterized response of RAW264.7 macrophage cells was used to produce tumor necrosis-factor-alpha (TNF-α) in response to LPS to determine whether the peptides could dampen the release of this cytokine. […] Importantly, pre-treatment (3 hours prior to LPS addition) as well as post-treatment of the RAW264.7 cells (3 hours post LPS addition) with peptide dampened the cytokine release. […] The finding that the novel peptides bind and neutralize the effect of Pseudomonas LPS is of critical importance since this ensures that the novel therapeutic peptide compounds described herein will not only kill the bacteria, but will also neutralize the LPS endotoxin released by the bacteria which plays such an important role in the rapid progression of sepsis.
(§3) BCC01-5RMP (SEQ ID NO: 21), BCC02-5RMP (SEQ ID NO: 22), and BCC03-5RMP (SEQ ID NO: 23) were tested for their ability to bind lipopolysaccharide (LPS) using the limulus amebocyte lysate method (LAL). […] There was no statistical difference in their ability to bind LPS using the LAL technique. The ability of the peptides to neutralize LPS was assessed by determining their ability to attenuate the release of tumor necrosis factor-alpha (TNF-α) from LPS-stimulated RAW264.7 cells (a mouse macrophage cell line). […] No significant differences were observed between the three peptides to neutralize LPS as measured by cytokine release.

RAW264.7 cells = assay: LPS neutralization: TNF-α release from LPS-stimulated RAW264.7 cells; type: cell-based, mouse
Method: as §2, §3

[2] = system: Pseudomonas clinical isolate B64; assay: BIOSCREEN C growth assay / MIC, antibiotic in combination with peptide; type: cell-based, P. aeruginosa
Method: The peptide and antibiotics were set up in the wells of the microtiter plate at starting ratios of MIC equivalents of antibiotic:peptide at 3:1, 1:1, and 1:3. They were serially diluted to concentrations well below suboptimal/sublethal levels of the antibiotic and peptide. The organism was added (1×10^5 CFU/well), the BIOSCREEN C™ assay (Growth Systems USA, Piscataway, N.J.) was performed, and data was collected over 24 hours.

[3] = system: human corneal epithelial cell (HCEC); assay: HCEC chemotaxis, modified Boyden chemotaxis chamber assay; type: cell-based; details: 120-146QH 10^−4 to 10^−10 M; 120-146QR 10^−6 and 10^−8 M; HB-EGF 50 ng/ml; rCAP37 250 ng/ml; 3 hours
Method: The effect of buffer control (0.1% BSA in Gey's buffer), heparin binding-epidermal growth factor (HB-EGF, 50 ng/ml), recombinant CAP37 (rCAP37, 250 ng/ml), 120-146QH ([…], 10^−10M, 10^−8M, 10^−4M, and 10^−4M,) and 120-146QR (10^−10M, 10^−8M, 10^−6M, and 10^−4M) on HCEC chemotaxis was determined by the modified Boyden chemotaxis chamber method. HCEC chemotaxis was measured in response to HB-EGF, rCAP37, and peptides 120-146QH (SEQ ID NO: 29) and 120-146QR (SEQ ID NO: 28) after incubation for 3 hours at 37° C. Chemotaxis is expressed as a percent migration. The buffer control (no chemoattractant) is arbitrarily assigned the value of 100% migration. Data are expressed as means±SEM and are calculated from 6 observations for each test point. **P<0.01 by Wilcoxon signed-rank test as compared to controls.
Chemotaxis assays were performed using the modified Boyden chemotaxis chamber assay. Peptide 120-146QH was used at 10^−4M, 10^−6M, 10^−8 M, 10^−10 M, and 10^−12M, and peptide 120-146QR was used at 10^−4M, 10^−6M, 10^−8 M, and 10^−10 M.

[4] = system: mouse cornea (corneal epithelial abrasion); assay: In vivo model of corneal wound healing
Method: The in vivo model of wound healing was carried out using a disposable biopsy punch (2 mm, Miltex, York, Pa.) to demarcate the mouse cornea and a 0.5 mm burr using the AlgerBrush II (The Alger Company, Inc., Lago Vista, Tex.) to remove the corneal epithelium.
Mice were anesthetized using ketamine (100 mg/kg; Bionichepharma, LLC., St. Lake Forrest, Ill.) and xylazine ([…]; Rompun; Bayer Corp., Shawnee Mission, Kans.), and the right cornea was wounded as follows. A disposable biopsy punch (2 mm, Miltex, York, Pa.) was used to demarcate the mouse cornea. The corneal epithelium was carefully removed within the 2 mm demarcated area with a 0.5 mm burr using the AlgerBrush II (The Alger Company, Inc., Lago Vista, Tex.). The corneal abrasions were treated at 0 and 16 hours with HB-EGF (250 ng/ml), rCAP37 (250 ng/ml), or vehicle control (0.9% sodium chloride, pH 5.5, Baxter, Deerfield, Ill.). Corneal abrasions were visualized using sterile fluorescein sodium ophthalmic strips USP (FLUORETS®, Chauvin Laboratory, Aubenas, France) dampened with sterile PBS. Images were taken at 0, 16, 24, and 48 hours immediately following fluorescein staining using a surgical microscope equipped with a camera (Carl Zeiss OPMI VISU 140, Carl Zeiss Surgical, Inc., Oberkochen, Germany). The areas of the open wound were quantitated using ImageJ software (US National Institutes of Health), and the results were reported as the percentage of wound closure.
Whole mouse eyes were collected for histology at 0, 6, 16, 24, and 48 hours post wounding and were immediately placed in Prefer fixative (Anatech LTD., Battle Creek, Mich.) for 20 minutes before being transferred to 70% ethanol. Tissues were paraffin-embedded and cut at a thickness of 5 μm, mounted on SUPERFROSTPLUS® slides (Statlab Medical Products, Lewisville, Tex.), and subsequently deparaffinized, rehydrated, and washed in deionized water. Sections were stained with hematoxylin (Leica Microsystems, Buffalo Grove, Ill.) and rinsed twice in deionized water before being washed in Blue Buffer (Leica Microsystems). The sections were finally washed in deionized water and 95% ethanol prior to being counterstained with eosin (Leica Microsystems). Sections were dehydrated in ethanol and cleared in xylene.

HCEC monolayers = assay: In vitro scratch assay of wound closure; type: cell-based, human
Method: An in vitro scratch assay was used in order to determine the ability of rCAP37 to facilitate corneal wound healing. Human corneal epithelial cells were cultured as described above until they reached a confluent monolayer. Each monolayer was scratched using a 10 μl pipette tip to create two perpendicular lines. Monolayers were treated with heparin binding-epidermal growth factor (HB-EGF, 250 ng/ml; Becton Dickinson), rCAP37 (25-2000 ng/ml), or basal KSFM (Gibco). Wound closure was monitored at 0, 18, 24, and 48 hours utilizing a camera-equipped inverted microscope (TE2000-E; Nikon, Melville, N.Y.). Time-lapse images of in vitro wound closure were obtained using a camera-equipped inverted microscope (TE2000-E; Nikon) from 0-18 hours. HCEC monolayers were treated with HB-EGF, rCAP37, and basal KSFM as described above. The width of each scratch was quantitated using ImageJ software (US National Institutes of Health, Bethesda, Md.). Results are presented as the percentage of wound closure.

[5] = 250 ng/ml topical at 0 and 16 hours

Molecule | activity against Acinetobacter baumannii [1] | activity against Salmonella typhimurium (Salmonella typhimurium) | binding of Pseudomonas LPS (LAL) (Pseudomonas LPS) | release of TNF-α in response to Pseudomonas LPS (RAW264.7 cells) | effect of added peptide on sensitivity of the bacterium to Cefotaxime ([2]; 3.04 μg/ml peptide with Cefotaxime 2.81 μg/ml, P=0.0143) | effect of added peptide with Levofloxacin, Fractional area (FA) ([2]; 3.04 μg/ml peptide with Levofloxacin 3.6 μg/ml) | effect of added peptide on killing by Ciprofloxacin ([2]; 4.05 μg/ml peptide with […] Ciprofloxacin, P=0.0003) | effect of added peptide on the killing effect of Cefotaxime ([2]; 0.34 and 1.0 μg/ml peptide with Cefotaxime 2.81 μg/ml) | HCEC migration versus buffer control [3] | re-epithelialization at 24 hours versus vehicle (H&E histology) ([4]; 250 ng/ml) | wound closure at 16 hours [4, 5] | wound closure at 24 hours [4, 5] | percentage wound closure in vitro (HCEC monolayers; 250 ng/ml, at 18 hours) | percentage wound closure in vitro (HCEC monolayers; 500 ng/ml)
CC[C@H](C)[C@H](NC(=O)[C@H](CC(C)C)NC(=O)[C@H](C)NC(=O)CNC(=O)CNC(=O)[C@H](CS)NC(=O)[C@H](Cc1ccccc1)NC(=O)[C@H](Cc1c[nH]cn1)NC(=O)[C@H](CCCNC(=N)N)NC(=O)CNC(=O)[C@H](CCC(N)=O)NC(=O)[C@H](CC(N)=O)NC(=O)[C@H](CCCNC(=N)N)NC(=O)[C@H](CCCNC(=N)N)NC(=O)[C@H](CCCNC(=N)N)NC(=O)[C@H](CCCNC(=N)N)NC(=O)COCCOCCNC(=O)COCCOCCN)C(=O)N[C@@H](Cc1c[nH]cn1)C(=O)N[C@@H](C)C(=O)N[C@@H](CCCNC(=N)N)C(=O)N[C@@H](Cc1ccccc1)C(=O)N[C@H](C(=O)N[C@@H](CCSC)C(=O)N[C@H](C(=O)N[C@@H](C)C(=O)N[C@@H](C)C(=O)N[C@@H](CO)C(=O)N[C@@H](CS)C(=O)N[C@@H](Cc1ccccc1)C(=O)N[C@@H](CCC(N)=O)C(=O)N[C@@H](CCCNC(=N)N)C(=O)O)[C@@H](C)O)C(C)C [BCC01-5RMP] (H-[AEEA][AEEA]RRRRNQGRHFCGGALIHARFVMTAASCFQR-OH; N-terminus and C-terminus assumed) | most active | strong, but lesser activity | bound Pseudomonas LPS | attenuate the release of TNF-α | – | – | – | – | – | – | – | – | – | –
CC[C@H](C)[C@H](NC(=O)[C@H](CC(C)C)NC(=O)[C@H](C)NC(=O)CNC(=O)CNC(=O)[C@H](CO)NC(=O)[C@H](Cc1ccccc1)NC(=O)[C@H](Cc1c[nH]cn1)NC(=O)[C@H](CCCNC(=N)N)NC(=O)CNC(=O)[C@H](CCC(N)=O)NC(=O)[C@H](CC(N)=O)NC(=O)[C@H](CCCNC(=N)N)NC(=O)[C@H](CCCNC(=N)N)NC(=O)[C@H](CCCNC(=N)N)NC(=O)[C@H](CCCNC(=N)N)NC(=O)COCCOCCNC(=O)COCCOCCN)C(=O)N[C@@H](Cc1c[nH]cn1)C(=O)N[C@@H](C)C(=O)N[C@@H](CCCNC(=N)N)C(=O)N[C@@H](Cc1ccccc1)C(=O)N[C@H](C(=O)N[C@@H](CCSC)C(=O)N[C@H](C(=O)N[C@@H](C)C(=O)N[C@@H](C)C(=O)N[C@@H](CO)C(=O)N[C@@H](CS)C(=O)N[C@@H](Cc1ccccc1)C(=O)N[C@@H](CCC(N)=O)C(=O)N[C@@H](CCCNC(=N)N)C(=O)O)[C@@H](C)O)C(C)C [BCC02-5RMP] (H-[AEEA][AEEA]RRRRNQGRHFSGGALIHARFVMTAASCFQR-OH; N-terminus and C-terminus assumed) | most active | strong, but lesser activity | bound Pseudomonas LPS | attenuate the release of TNF-α | now sensitive | shows significance | significantly affected killing | no statistical effect | – | – | – | – | – | –
CAP37: cationic antimicrobial protein of Mr 37 kDa; recombinant CAP37 produced in human embryonic kidney (HEK) 293 cells (protein) IVGGRKARPRQFPFLASIQNQGRHFCGGALIHARFVMTAASCFQSQNPGVSTVVLGAYDLRRRERQSRQTFSISSMSENGYDPQQNLNDLMLLQLDREANLTSSVTILPLPLQNATVEAGTRCQVAGWGSQRSGGRLSRFPRFVNVTVTPEDQCRPNNVCTGVLTRRGGICNGDGGTPLVCEGLAHGVASFSLGPCGRGPDFFTRVALFRDWIDGVLNNPGP | – | – | – | – | – | – | – | – | significant increase in migration | greatly accelerated | 71% | 83% | ~71% | approximately 62%
